# Like-named read-outs stand apart in the source and are kept apart here.
# How the values were obtained:
# E. coli ATCC25922 = experiment: Antibacterial assay (MIC); assay type: cell-based; conditions: Escherichia coli
# Protocol: (§1) The minimal inhibitory concentration (MIC) was determined as described previously in cation-adjusted Mueller-Hinton medium according to the standards and guidelines of the Clinical and Laboratory Standards Institute. […] After an overnight incubation at 37 °C, the MIC was read as the lowest compound concentration preventing visible bacterial growth. The strain panel included representative species of nosocomial pathogens, known as “[…]” bacteria. Specifically, the following strains were used: Enterococcus faecium BM 4147-1, Staphylococcus aureus ATCC 29213, Klebsiella pneumoniae ATCC 12657, Acinetobacter baumannii 09987, Pseudomonas aeruginosa ATCC 27853, and Enterobacter aerogenes ATCC 13048. Bacillus subtilis 168, Escherichia coli ATCC 25922, and Mycobacterium smegmatis mc^2 155 ATCC 700084 were used as further reference strains.
# K. pneumoniae ATCC12657 = experiment: Antibacterial assay (MIC); assay type: cell-based; conditions: Klebsiella pneumoniae
# Protocol: as §1
# S. aureus ATCC29213 = experiment: Antibacterial assay (MIC); assay type: cell-based; conditions: Staphylococcus aureus
# Protocol: as §1
# B. subtilis 168 = experiment: Antibacterial assay (MIC); assay type: cell-based; conditions: Bacillus subtilis
# Protocol: as §1
# P. aeruginosa ATCC27853 = experiment: Antibacterial assay (MIC); assay type: cell-based; conditions: Pseudomonas aeruginosa
# Protocol: as §1
# A. baumannii 09987 = experiment: Antibacterial assay (MIC); assay type: cell-based; conditions: Acinetobacter baumannii
# Protocol: as §1
# E. faecium BM4147-1 = experiment: Antibacterial assay (MIC); assay type: cell-based; conditions: Enterococcus faecium, BM41471
# Protocol: as §1
# [1] = test system: Litomosoides sigmodontis adult female worms; experiment: Anthelmintic assay, motility of adult filariae cultured in vitro; assay type: cell-based; conditions: 0.1, 1 and 10 µM; scale 0 (immotile) to 2 (maximum motility); 2.0 in media controls
# Protocol: To investigate the activity against filarial nematodes, adult female worms of the rodent filarial nematode Litomosoides sigmodontis were cultured in vitro with a 0.1, 1 and 10 µM concentration of 1. Motility of adult filariae as well as reduction of Wolbachia endosymbionts were assessed. […] L. sigmodontis adult female worms were isolated from chronically infected cotton rats (UKB). Three L. sigmodontis female adult worms per condition were cultured in supplemented Minimal Essential Medium (MEM) on a LLCMK2 cell layer, as previously described. […] Candidate 1 was tested at concentrations of 0.1, 1 and 10 µM. Filarial viability was assessed by determining the mean worm motility scores on a scale of 0 (immotile) to 2 (maximum motility) before drug addition and at 1 h, 1 day, 2 day, 4 day, 6 day, 8 day, 10 day, 12 day and 14 day post drug addition. The drug-containing media was renewed every other day. Depletion of Wolbachia endosymbionts from female adult worms was analyzed after two weeks of in vitro culture and determined as previously described using primers for the single copy gene Wolbachia ftsZ.
# [2] = test system: Trypanosoma brucei rhodesiense STIB900; experiment: Activity against Trypanosoma brucei rhodesiense STIB900 (resazurin); conditions: Table 2 values are means of two independent assays
# Protocol: Activity against Trypanosoma brucei rhodesiense STIB900. […] Minimum Essential Medium (50 µL) supplemented with 25 mM HEPES, 1 g/L additional glucose, 1% MEM non-essential amino acids (100×), 0.2 mM 2-mercaptoethanol, 1 mM Na-pyruvate and 15% heat inactivated horse serum was added to each well of a 96-well microtiter plate. Serial drug dilutions ranging from 100 to 0.002 μg/mL were prepared. Then, 4 × 10^3 bloodstream forms of T. b. rhodesiense STIB 900 in 50 µL were added to each well and the plate was incubated at 37 °C under a 5% CO2 atmosphere for 70 h. 10 µL of a resazurin solution (resazurin, 12.5 mg in 100 mL double-distilled water) was then added to each well and incubation continued for a further 2–4 h [70]. The plates were read with a Spectramax Gemini XS microplate fluorometer (Molecular Devices Cooperation, Sunnyvale, CA, USA) using an excitation wavelength of 536 nm and an emission wavelength of 588 nm. Data were analyzed using Softmax Pro (Molecular Devices Cooperation, Sunnyvale, CA, USA), which calculated IC50 values by linear regression [71] and 4-parameter logistic regression from the sigmoidal dose inhibition curves.
# [3] = test system: P. falciparum NF54 strain; experiment: In vitro activity against erythrocytic stages of P. falciparum (3H-hypoxanthine incorporation assay); assay type: cell-based; conditions: Plasmodium falciparum, Table 2 values are means of two independent assays
# Protocol: Activity against P. falciparum. In vitro activity against erythrocytic stages of P. falciparum was determined using a ^3H-hypoxanthine incorporation assay against the drug-sensitive NF54 strain [76]. Compounds were dissolved in DMSO at 10 mg/mL and further diluted in medium before being added to parasite cultures incubated in RPMI 1640 medium without hypoxanthine, supplemented with HEPES (5.94 g/L), NaHCO3 (2.1 g/L), neomycin (100 U/mL), Albumax^R (5 g/L) and washed human red cells A^+ at 2.5% haematocrit (0.3% parasitaemia). Serial drug dilutions ranged from 100 to 0.002 μg/mL. The 96-well plates were incubated in a humidified atmosphere at 37 °C; 4% CO2, 3% O2, 93% N2. After 48 h 50 μL of ^3H-hypoxanthine (=0.5 μCi) was added to each well of the plate. The plates were incubated for a further 24 h under the same conditions. The plates were then harvested with a Betaplate™ cell harvester (Wallac, Zurich, Switzerland) and the red blood cells were transferred onto a glass fiber filter then washed with distilled water. The dried filters were inserted into a plastic foil with 10 mL of scintillation fluid and counted in a Betaplate™ liquid scintillation counter (Wallac, Zurich, Switzerland). IC50 values were calculated from sigmoidal inhibition curves by linear regression using Microsoft Excel. Chloroquine diphosphate (Sigma C6628) was used as control (IC50 0.006 ± 0.002 μM).
# [4] = test system: Severe Acute Respiratory Syndrome Corona Virus type 2 (SARS-CoV-2); assay type: cell-based; conditions: up to the highest concentration tested (10 µM), CaCo2 cells
# [5] = test system: L. donovani strain MHOM/ET/67/L82 axenic amastigotes; experiment: Activity against L. donovani axenic amastigotes (resazurin); assay type: cell-based, Leishmania donovani; conditions: Leishmania donovani, in vitro, Table 2 values are means of two independent assays
# Protocol: Activity against L. donovani axenic amastigotes. Amastigotes of L. donovani strain MHOM/ET/67/L82 were grown in axenic culture at 37 °C in SM medium at pH 5.4 supplemented with 10% heat-inactivated fetal bovine serum under an atmosphere of 5% CO2 in air. 100 µL of culture medium with 10^5 amastigotes from axenic culture with or without a serial drug dilution were seeded in 96-well microtiter plates. Serial drug dilutions ranged from 100 to 0.002 μg/mL. After 70 h of incubation, the plates were inspected under an inverted microscope to assure growth of the controls and sterile conditions.
# [6] = test system: T. cruzi Tulahuen strain C2C4; experiment: Activity against T. cruzi in L-6 cells (beta-galactosidase/CPRG); assay type: cell-based, Trypanosoma cruzi; conditions: in vitro, Tulahuen C2C4 in L-6 cells, Table 2 values are means of two independent assays
# Protocol: Activity against T. cruzi. Rat skeletal myoblasts (L-6 cells) were seeded in 96-well microtiter plates at 2000 cells/well in 100 μL RPMI 1640 medium with 10% FBS and 2 mM L-glutamine. After 24 h, the media in each well was removed and replaced with 100 μL of fresh media containing 5000 trypomastigote forms of T. cruzi Tulahuen strain C2C4 containing the β-galactosidase (lacZ) gene. After 48 h, the media was removed from the wells again, and this time, replaced by 100 μL fresh medium with or without 1 from 100 to 0.002 μg/mL. After 96 h of incubation, the plates were inspected under an inverted microscope to assess growth and sterility of the controls. Then, the substrate CPRG/Nonidet (50 μL) was added to all wells. A color reaction developed within 2–6 h and could be read photometrically at 540 nm.
# E. aerogenes ATCC13048 = experiment: Antibacterial assay (MIC); assay type: cell-based, Enterobacter aerogenes; conditions: Klebsiella aerogenes
# Protocol: as §1
smiles,measurement,setting,value
"CC1=C[C@@H](/C=C(\C)CCCc2ccoc2)[C@]2(OC(=O)C(C)=C2O)[C@@H]2[C@@H](C)CC[C@@H]12 [compound 1, Ircinianin]",MIC,E. coli ATCC25922,> 32 µg/mL
same,MIC,K. pneumoniae ATCC12657,> 32 µg/mL
same,MIC,S. aureus ATCC29213,> 32 µg/mL
same,MIC,B. subtilis 168,> 32 µg/mL
same,MIC,P. aeruginosa ATCC27853,> 32 µg/mL
same,MIC,A. baumannii 09987,> 32 µg/mL
same,MIC,E. faecium BM4147-1,> 32 µg/mL
same,motility score,[1],1.7–1.8
same,IC50,"[2]; Trypanosoma brucei, RHODESIENSE|STIB900, read-out: IC50 T. brucei rhodesiense, in vitro, STIB900 bloodstream forms",> 80 µM
same,IC50,"[2]; read-out: IC50 T. brucei rhodesiense, in vitro, STIB900 bloodstream forms, listed as Ircinianin (1)",82.8 µM
same,IC50,[3],25.4 µM
same,Inhibition of SARS-CoV-2 infection,[4],no inhibition
same,IC50,[5],16.6 µM
same,IC50,[6],> 80 µM
same,IC50,[6]; listed as Ircinianin (1),191 µM
same,MIC,E. aerogenes ATCC13048,> 32 µg/mL

# — publication PMC9410537, “Discovery of Ircinianin Lactones B and C—Two New Cyclic Sesterterpenes from the Marine Sponge Ircinia wistarii” (Marine Drugs, 2022)
